Measurements taken from the supplement of paper PMC8558673.

Tested on: Escherichia coli K12 ER1821
Assay: log10 surviving fraction N/N0 (CFU/mL relative to untreated control) (log_unit); higher = more bacterial survival (less inactivation)
Procedure: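 E. coli K12 ER1821 (mid-exponential, washed in 250 mM sucrose) was exposed to antibiotic at MIC, 3x, 10x or 30x MIC, given a single 1-ms pulse of 0-20 kV/cm, and incubated with the antibiotic at room temperature for <=1 min, 60 min, 160 min or 24 h before dilution. Survivors were counted as CFU by drop plating after overnight growth at 37 C; the value is log10(N/N0) relative to the untreated control (no antibiotic, no pulse), with 3 replicates on different days.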

CC1(C)S[C@@H]2[C@H](NC(=O)[C@H](N)c3ccccc3)C(=O)N2[C@H]1C(=O)O [ampicillin]
log10 surviving fraction N/N0
Conditions	antibiotic concentration 30 ug/mL	antibiotic concentration 90 ug/mL	antibiotic concentration 300 ug/mL	antibiotic concentration 900 ug/mL
electric pulse amplitude (kV/cm, single 1-ms pulse): 0, post-pulse incubation time: 24 h	-0.726	-1.73	-2.56	-2.68
electric pulse amplitude (kV/cm, single 1-ms pulse): 0, post-pulse incubation time: 60 min	-0.0801	-0.135	-1.02	-1.65
electric pulse amplitude (kV/cm, single 1-ms pulse): 0, post-pulse incubation time: 160 min	-0.551	-1.08	-1.68	-2.17
electric pulse amplitude (kV/cm, single 1-ms pulse): 0, post-pulse incubation time: <=1 min	-0.0839	-0.253	-0.17	-0.995
electric pulse amplitude (kV/cm, single 1-ms pulse): 5, post-pulse incubation time: 24 h	-1.01	-1.77	-2.86	-3.4
electric pulse amplitude (kV/cm, single 1-ms pulse): 5, post-pulse incubation time: 60 min	-0.411	-0.494	-1.56	-2.27
electric pulse amplitude (kV/cm, single 1-ms pulse): 5, post-pulse incubation time: 160 min	-0.803	-1.47	-2.27	-2.86
electric pulse amplitude (kV/cm, single 1-ms pulse): 5, post-pulse incubation time: <=1 min	-0.112	-0.305	-0.412	-1.08
electric pulse amplitude (kV/cm, single 1-ms pulse): 10, post-pulse incubation time: 24 h	-1.62	-2.91	-4.063	-4.5
electric pulse amplitude (kV/cm, single 1-ms pulse): 10, post-pulse incubation time: 60 min	-1.07	-1.59	-2.43	-2.817
electric pulse amplitude (kV/cm, single 1-ms pulse): 10, post-pulse incubation time: 160 min	-1.64	-2.22	-2.96	-3.31
electric pulse amplitude (kV/cm, single 1-ms pulse): 10, post-pulse incubation time: <=1 min	-0.474	-0.722	-1.11	-1.27
electric pulse amplitude (kV/cm, single 1-ms pulse): 15, post-pulse incubation time: 24 h	-2.66	-3.79	-4.45	-4.93
electric pulse amplitude (kV/cm, single 1-ms pulse): 15, post-pulse incubation time: 60 min	-1.88	-2.12	-2.9	-3.28
electric pulse amplitude (kV/cm, single 1-ms pulse): 15, post-pulse incubation time: 160 min	-2.2	-2.74	-3.3	-3.8
electric pulse amplitude (kV/cm, single 1-ms pulse): 15, post-pulse incubation time: <=1 min	-1.1	-1.29	-1.34	-1.99
electric pulse amplitude (kV/cm, single 1-ms pulse): 20, post-pulse incubation time: 24 h	-3.57	-4.39	-4.6	-4.96
electric pulse amplitude (kV/cm, single 1-ms pulse): 20, post-pulse incubation time: 60 min	-2.46	-2.71	-3.42	-3.64
electric pulse amplitude (kV/cm, single 1-ms pulse): 20, post-pulse incubation time: 160 min	-2.65	-3.23	-3.77	-4.02
electric pulse amplitude (kV/cm, single 1-ms pulse): 20, post-pulse incubation time: <=1 min	-1.34	-1.45	-1.85	-2.58

O=C(O)c1cn(C2CC2)c2cc(N3CCNCC3)c(F)cc2c1=O [ciprofloxacin]
log10 surviving fraction N/N0
Conditions	antibiotic concentration 0.025 ug/mL	antibiotic concentration 0.075 ug/mL	antibiotic concentration 0.25 ug/mL	antibiotic concentration 0.75 ug/mL
electric pulse amplitude (kV/cm, single 1-ms pulse): 0, post-pulse incubation time: 24 h	-1.23	-2.32	-3.37	-2.76
electric pulse amplitude (kV/cm, single 1-ms pulse): 0, post-pulse incubation time: 60 min	-0.187	-0.389	-1.04	-1.39
electric pulse amplitude (kV/cm, single 1-ms pulse): 0, post-pulse incubation time: 160 min	-0.358	-0.825	-1.78	-2.04
electric pulse amplitude (kV/cm, single 1-ms pulse): 0, post-pulse incubation time: <=1 min	-0.0971	-0.218	-0.361	-0.897
electric pulse amplitude (kV/cm, single 1-ms pulse): 5, post-pulse incubation time: 24 h	-1.2	-2.36	-3.46	-2.88
electric pulse amplitude (kV/cm, single 1-ms pulse): 5, post-pulse incubation time: 60 min	-0.336	-0.615	-1.11	-1.47
electric pulse amplitude (kV/cm, single 1-ms pulse): 5, post-pulse incubation time: 160 min	-0.532	-0.993	-1.87	-2.11
electric pulse amplitude (kV/cm, single 1-ms pulse): 5, post-pulse incubation time: <=1 min	-0.217	-0.161	-0.535	-1.04
electric pulse amplitude (kV/cm, single 1-ms pulse): 10, post-pulse incubation time: 24 h	-1.78	-2.97	-3.49	-3.36
electric pulse amplitude (kV/cm, single 1-ms pulse): 10, post-pulse incubation time: 60 min	-0.593	-1.29	-1.69	-2.16
electric pulse amplitude (kV/cm, single 1-ms pulse): 10, post-pulse incubation time: 160 min	-1.04	-1.73	-2.52	-2.86
electric pulse amplitude (kV/cm, single 1-ms pulse): 10, post-pulse incubation time: <=1 min	-0.507	-0.67	-0.989	-1.83
electric pulse amplitude (kV/cm, single 1-ms pulse): 15, post-pulse incubation time: 24 h	-2.35	-3.37	-3.85	-4.09
electric pulse amplitude (kV/cm, single 1-ms pulse): 15, post-pulse incubation time: 60 min	-1.41	-1.81	-2.34	-2.77
electric pulse amplitude (kV/cm, single 1-ms pulse): 15, post-pulse incubation time: 160 min	-1.62	-2.31	-3.12	-3.27
electric pulse amplitude (kV/cm, single 1-ms pulse): 15, post-pulse incubation time: <=1 min	-1.25	-1.2	-1.55	-2.28
electric pulse amplitude (kV/cm, single 1-ms pulse): 20, post-pulse incubation time: 24 h	-3.05	-3.76	-4.37	-4.6
electric pulse amplitude (kV/cm, single 1-ms pulse): 20, post-pulse incubation time: 60 min	-1.77	-2.25	-2.75	-3.05
electric pulse amplitude (kV/cm, single 1-ms pulse): 20, post-pulse incubation time: 160 min	-1.92	-2.73	-3.31	-3.37
electric pulse amplitude (kV/cm, single 1-ms pulse): 20, post-pulse incubation time: <=1 min	-1.65	-1.77	-2.05	-2.91

CN(C)[C@@H]1C(O)=C(C(N)=O)C(=O)[C@@]2(O)C(O)=C3C(=O)c4c(O)cccc4[C@@](C)(O)[C@H]3C[C@@H]12 [tetracycline]
log10 surviving fraction N/N0
Conditions	antibiotic concentration 2 ug/mL	antibiotic concentration 6 ug/mL	antibiotic concentration 20 ug/mL	antibiotic concentration 60 ug/mL
electric pulse amplitude (kV/cm, single 1-ms pulse): 0, post-pulse incubation time: 24 h	-0.417	-0.475	-0.573	-1.45
electric pulse amplitude (kV/cm, single 1-ms pulse): 0, post-pulse incubation time: 60 min	-0.108	-0.125	-0.116	-0.361
electric pulse amplitude (kV/cm, single 1-ms pulse): 0, post-pulse incubation time: 160 min	-0.0521	-0.172	-0.241	-0.461
electric pulse amplitude (kV/cm, single 1-ms pulse): 0, post-pulse incubation time: <=1 min	-0.0586	-0.2	-0.136	-0.26
electric pulse amplitude (kV/cm, single 1-ms pulse): 5, post-pulse incubation time: 24 h	-0.436	-0.518	-0.877	-2.42
electric pulse amplitude (kV/cm, single 1-ms pulse): 5, post-pulse incubation time: 60 min	-0.307	-0.307	-0.303	-0.636
electric pulse amplitude (kV/cm, single 1-ms pulse): 5, post-pulse incubation time: 160 min	-0.235	-0.282	-0.345	-0.84
electric pulse amplitude (kV/cm, single 1-ms pulse): 5, post-pulse incubation time: <=1 min	-0.0914	-0.264	-0.276	-0.618
electric pulse amplitude (kV/cm, single 1-ms pulse): 10, post-pulse incubation time: 24 h	-0.65	-0.762	-1.8	-3.46
electric pulse amplitude (kV/cm, single 1-ms pulse): 10, post-pulse incubation time: 60 min	-0.769	-0.825	-1.02	-1.72
electric pulse amplitude (kV/cm, single 1-ms pulse): 10, post-pulse incubation time: 160 min	-0.827	-0.925	-1.11	-2.1
electric pulse amplitude (kV/cm, single 1-ms pulse): 10, post-pulse incubation time: <=1 min	-0.389	-0.48	-0.656	-1.39
electric pulse amplitude (kV/cm, single 1-ms pulse): 15, post-pulse incubation time: 24 h	-1	-1.48	-2.97	-4.05
electric pulse amplitude (kV/cm, single 1-ms pulse): 15, post-pulse incubation time: 60 min	-1.45	-1.53	-1.82	-2.48
electric pulse amplitude (kV/cm, single 1-ms pulse): 15, post-pulse incubation time: 160 min	-1.46	-1.63	-1.99	-2.74
electric pulse amplitude (kV/cm, single 1-ms pulse): 15, post-pulse incubation time: <=1 min	-0.764	-0.971	-1.23	-2.06
electric pulse amplitude (kV/cm, single 1-ms pulse): 20, post-pulse incubation time: 24 h	-1.49	-1.98	-3.9	-4.78
electric pulse amplitude (kV/cm, single 1-ms pulse): 20, post-pulse incubation time: 60 min	-1.99	-2.02	-2.25	-3.13
electric pulse amplitude (kV/cm, single 1-ms pulse): 20, post-pulse incubation time: 160 min	-1.97	-2.19	-2.44	-3.57
electric pulse amplitude (kV/cm, single 1-ms pulse): 20, post-pulse incubation time: <=1 min	-1.26	-1.3	-1.57	-2.34
